Biological target: T1, human FAAH (Homo sapiens, UniProt O00519)
T1 construct: host or cells: COS-7 cells, transient transfection; 13,000 g membrane fraction solubilised in 1% Triton X-100
T1 sequence (O00519 1-579): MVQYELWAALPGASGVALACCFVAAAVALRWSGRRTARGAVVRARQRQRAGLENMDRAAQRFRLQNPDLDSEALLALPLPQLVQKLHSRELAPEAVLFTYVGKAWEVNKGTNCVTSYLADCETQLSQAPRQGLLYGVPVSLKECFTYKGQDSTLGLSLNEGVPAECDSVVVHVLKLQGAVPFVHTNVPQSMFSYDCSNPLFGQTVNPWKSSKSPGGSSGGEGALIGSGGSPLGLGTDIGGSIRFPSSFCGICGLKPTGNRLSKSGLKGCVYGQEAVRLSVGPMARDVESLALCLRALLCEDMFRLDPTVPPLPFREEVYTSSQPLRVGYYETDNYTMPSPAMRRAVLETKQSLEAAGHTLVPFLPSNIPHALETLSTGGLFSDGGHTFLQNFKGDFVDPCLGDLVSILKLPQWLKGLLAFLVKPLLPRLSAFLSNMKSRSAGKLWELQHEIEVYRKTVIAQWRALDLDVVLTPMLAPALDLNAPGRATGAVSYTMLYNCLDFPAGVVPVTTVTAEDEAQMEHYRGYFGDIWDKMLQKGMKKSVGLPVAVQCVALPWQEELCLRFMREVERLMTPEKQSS
Assay: Inhibition of human FAAH (AMC arachidonoyl amide fluorescence assay)
Type: biochemical
Details: inhibitor preincubated 30 minutes at room temperature; 20 μM AMC arachidonoyl amide; 4 hours; read-out: Activity (Ki, inhibitors of human FAAH)
In short: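 Solubilized membrane fraction from COS-7 cells transiently expressing human FAAH (0.05 mg/mL final) preincubated 30 min at room temperature with 3-fold serially diluted inhibitor, then reacted 4 h at room temperature with 20 μM AMC arachidonoyl amide. Stopped with α-ketoheterocycle; fluorescence read. Ki from single-site competitive fit, Km fixed at 12 μM.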

Row | Structure (SMILES) | Ki [nM]
1 | CN(CC(=O)O)C1=NOC(c2ccc(Oc3ccccc3)cc2)C1 (racemic) [I-244] | 100 to 1000
2 | BrC1=NOC(CCOc2ccccc2)C1 (single isomer, unassigned) [I-50] | 100 to 1000
3 | COC1=NOC(c2ccc(Oc3ccccc3)cc2)C1 (single isomer, unassigned) [I-45] | ≥ 1000
4 | c1ccc(Oc2ccc(C3CC(N4CCCC4)=NO3)cc2)cc1 (racemic) [I-256] | ≥ 1000
5 | c1cncc(OC2=NOC(c3ccc(Oc4cccnc4)cc3)C2)c1 (racemic) [I-87] | ≤ 100
6 | O=C(O)c1ccc(OC2=NOC(c3ccc(Br)cc3)C2)cn1 (racemic) [I-150] | ≤ 100
7 | CC1(c2ccc(OC(F)(F)F)cc2)CC(Oc2cncc(-c3nnco3)c2)=NO1 (racemic) [I-228] | ≤ 100
8 | NC(=O)c1cncc(OC2=NOC(c3ccc(Oc4ccccc4)cc3)C2)c1 (single isomer, unassigned) [I-47] | 100 to 1000
9 | CCN(C1=NOC(c2ccc(OC(F)(F)F)cc2)C1)c1ccccc1 (racemic) [I-253] | ≥ 1000
10 | CC1(c2ccc(OC(F)(F)F)cc2)CC(Oc2ccc(-c3ncco3)nc2)=NO1 (racemic) [I-185] | ≤ 100
11 | CS(=O)(=O)c1ccc(OC2=NOC(c3ccc(Oc4ccccc4)cc3)C2)cn1 (racemic) [I-197] | ≤ 100
12 | COc1ccc([C@@H]2ON=C(Br)[C@H]2C)cc1 (racemic) [I-77] | ≥ 1000
13 | c1ccc(Oc2ccc(C3CC(Oc4ccncc4)=NO3)cc2)cc1 (single isomer, unassigned) [I-36] | ≥ 1000
14 | Cc1nnc(-c2ccc(OC3=NOC(C)(c4ccc(OC(F)(F)F)cc4)C3)cn2)s1 (racemic) [I-158] | ≤ 100

Results, then the molecule that gave them:

Row | Ki [nM] | Structure (SMILES)
15 | ≤ 100 | CCCCOc1ccc([C@H]2CC(Oc3ccc(C(=O)O)nc3)=NO2)cc1 (racemic) [I-138]
16 | ≤ 100 | CS(=O)(=O)c1ncc(OC2=NOC(c3ccc(OC(F)(F)F)cc3)C2)cn1 (racemic) [I-133]
17 | ≤ 100 | O=C(O)c1ccc(OC2=NOC(c3ccc(C(F)(F)F)cc3)C2)cn1 (racemic) [I-170]
18 | ≤ 100 | COC(=O)c1ccc(C2CC(Br)=NO2)cc1 (racemic) [I-74]
19 | ≤ 100 | COc1ncc(OC2=NOC(c3ccc(Oc4ccccc4)cc3)C2)cn1 (racemic) [I-66]
20 | ≤ 100 | COC(=O)CCc1ccc(OC2=NOC(c3ccc(Oc4ccccc4)cc3)C2)cn1 (racemic) [I-98]
21 | ≤ 100 | COC(=O)CNC(=O)c1ccc(OC2=NOC(c3ccc(OC(F)(F)F)cc3)C2)cn1 (racemic) [I-105]
22 | ≤ 100 | CSc1ccc(OC2=NOC(c3ccc(C(F)(F)F)cc3)C2)cn1 (racemic) [I-238]
23 | ≤ 100 | O=C(O)CCc1ccc(OC2=NOC(c3ccc(Oc4ccccc4)cc3)C2)cn1 (racemic) [I-99]

Reference: patent US9149465B2, “Isoxazolines as inhibitors of fatty acid amide hydrolase” (Infinity Pharmaceuticals, Inc., priority 2009, dated 2015)
